Results taken from US8048879B2, “Substituted 4,5,6,7-tetrahydro-isoxazolo[4,5-c]pyridine compounds and use thereof for producing medicaments” (Gruenenthal GmbH, priority 2005, dated 2011).

The molecules below were run against T1, 5-HT transporter (Rattus norvegicus, UniProt P31652) (assay: 5-HT uptake inhibition, synaptosomes from rat brain (medulla and pons)). Details: not given.
T1 construct: from tissue; host or cells: rat brain (medulla and pons), synaptosomes, P2 fraction
Type: biochemical
Excerpt: b) Method for Determining Noradrenalin and 5-HT Uptake Inhibition:
Synaptosomes from rat brain regions are freshly isolated for in vitro studies, as described in the publication “The isolation of nerve endings from brain” by E. G. Gray and V. P. Whittaker, J. Anatomy 96, pages 79-88, 1962. The corresponding literature description is hereby introduced as a reference and is deemed to be part of the disclosure.
The tissue (hypothalamus for the determination of noradrenalin uptake inhibition and medulla and pons for the determination of 5-HT uptake inhibition) is homogenised in ice-cooled 0.32 M sucrose (100 mg of tissue/1 mL) in a glass homogeniser with Teflon pestle using five complete up and down strokes at 840 revolutions/minute.
The homogenate is centrifuged at 4° C. for 10 minutes at 1000 g. After subsequent centrifugation at 17000 g for 55 minutes, the synaptosomes (P2 fraction) are obtained, which are resuspended in 0.32 M […] (0.5 mL/100 mg of original weight).
The particular uptake is measured in a 96-well microtitre plate. The volume is 250 μL and the incubation proceeds at room temperature (approx. 20-25° C.) under an O2 atmosphere.
The incubation time is 7.5 minutes for [^3H]-NA and 5 minutes for [^3H]-5-HT. The 96 samples are then filtered through a Unifilter GF/B® microtitre plate (Packard) and washed with 200 mL of incubated buffer using a “Brabdel MPXRI-96T Cell-Harvester”. The Unifilter GF/B plate is dried for 1 hour at 55° C. The plate is then sealed with a Back Seal® (Packard) and 35 μL of scintillation fluid are added per well (Ultima Gold®, Packard). After sealing with a top Seal® (Packard) and establishing an equilibrium (around 5 hours), radioactivity is determined in a “Trilux 1450 Microbeta” (Wallac).
The quantity of protein used in the above determination corresponds to the values known from the literature, as for example described in “Protein measurement with the folin phenol reagent”, Lowry et al., J. Biol. Chem., 193, 265-275, 1951.
A detailed description of the method may additionally be found in the literature, for example in M. Ch. Frink, H.-H. Hennies, W. Engelberger, M. Haurand and B. Wilffert (1996) Arzneim.-Forsch./Drug Res. 46 (III), 11, 1029-1036.
The following characteristics were determined for the NA or 5-HT transporter: […]

T1 sequence (P31652 whole entry): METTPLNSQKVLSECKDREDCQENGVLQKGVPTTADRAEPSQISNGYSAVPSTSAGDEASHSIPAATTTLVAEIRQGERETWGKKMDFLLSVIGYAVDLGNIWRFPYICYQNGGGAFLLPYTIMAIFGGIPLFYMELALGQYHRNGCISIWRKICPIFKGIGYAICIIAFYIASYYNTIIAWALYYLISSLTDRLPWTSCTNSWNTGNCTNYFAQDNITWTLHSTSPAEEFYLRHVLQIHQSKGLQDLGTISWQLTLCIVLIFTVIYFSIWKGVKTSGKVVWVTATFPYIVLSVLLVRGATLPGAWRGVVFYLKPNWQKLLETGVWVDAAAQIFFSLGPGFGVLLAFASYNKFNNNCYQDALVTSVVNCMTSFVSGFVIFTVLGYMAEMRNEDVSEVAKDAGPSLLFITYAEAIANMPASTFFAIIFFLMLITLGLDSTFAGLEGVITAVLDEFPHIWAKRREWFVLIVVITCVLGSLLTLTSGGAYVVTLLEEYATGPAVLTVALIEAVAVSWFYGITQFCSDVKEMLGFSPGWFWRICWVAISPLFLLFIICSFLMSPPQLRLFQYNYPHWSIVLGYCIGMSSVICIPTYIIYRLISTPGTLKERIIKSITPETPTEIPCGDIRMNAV

inhibition at 10 µM	Compound
69%	COc1ccc(C(C)NC(=O)c2noc3c2CN(S(=O)(=O)c2ccc(OC)cc2)CC3)cc1 (stereo not drawn) [Example 84, 5-(4-methoxy-benzenesulfonyl)-4,5,6,7-tetrahydro-isoxazolo[4,5-c]pyridine-3-carboxylic acid [1-(4-methoxyphenyl)-ethyl] amide]
67%	CCOC(=O)C(C)NC(=O)c1noc2c1CN(S(=O)(=O)c1cccs1)CC2 (stereo not drawn) [Example 85, 2-{[5-(thiophene-2-sulfonyl)-4,5,6,7-tetrahydro-isoxazolo[4,5-c]pyridine-3-carbonyl]-amino}-propionic acid ethyl ester]
62%	COc1ccc(S(=O)(=O)N2CCc3onc(C(=O)NC(CCC(=O)OC(C)(C)C)C(N)=O)c3C2)cc1 (stereo not drawn) [Example 88, 4-carbamoyl-4-{[5-(4-methoxy-benzenesulfonyl)-4,5,6,7-tetrahydro-isoxazolo[4,5-c]pyridine-3-carbonyl]-amino}-butanoic acid tert-butyl ester]
64%	CSc1ccc(CN(Cc2ccco2)C(=O)c2noc3c2CN(S(=O)(=O)N(C)C)CC3)cc1 [Example 89, 5-dimethylsulfamoyl-4,5,6,7-tetrahydro-isoxazolo[4,5-c]pyridine-3-carboxylic acid furan-2-ylmethyl-(4-methylsulfanyl-benzyl) amide]
61%	O=C(NCCc1ccc(Cl)c(Cl)c1)c1noc2c1CN(S(=O)(=O)c1ccccc1)CC2 [Example 92, 5-benzenesulfonyl-4,5,6,7-tetrahydro-isoxazolo[4,5-c]pyridine-3-carboxylic acid [2-(3,4-dichloro-phenyl)-ethyl] amide]
88%	CN(C)CCNC(=O)c1noc2c1CN(C(=O)c1cccc(SC(F)F)c1)CC2 [Example 93, 5-(3-difluoromethylsulfanyl-benzoyl)-4,5,6,7-tetrahydro-isoxazolo[4,5-c]pyridine-3-carboxylic acid (2-dimethylamino-ethyl) amide]
68%	COc1ccc(S(=O)(=O)N2CCc3onc(C(=O)NCc4cccc(OC)c4OC)c3C2)cc1 [Example 95, 5-(4-methoxy-benzenesulfonyl)-4,5,6,7-tetrahydro-isoxazolo[4,5-c]pyridine-3-carboxylic acid 2,3-dimethoxy-benzyl amide]
75%	CCOC(=O)CCNC(=O)c1noc2c1CN(C(=O)c1ccc(OC)cc1)CC2 [Example 98, 3-{[5-(4-methoxy-benzoyl)-4,5,6,7-tetrahydro-isoxazolo[4,5-c]pyridine-3-carbonyl]-amino}-propionic acid ethyl ester]
69%	CN(C)CCNC(=O)c1noc2c1CN(C(=O)CCCOc1ccccc1)CC2 [Example 99, 5-(4-phenoxy-butyryl)-4,5,6,7-tetrahydro-isoxazolo[4,5-c]pyridine-3-carboxylic acid (2-dimethylamino-ethyl) amide]
83%	Cc1cccc2c(CCNC(=O)c3noc4c3CN(S(=O)(=O)c3ccc(OC(F)(F)F)cc3)CC4)c[nH]c12 [Example 100, 5-(4-trifluoromethoxy-benzenesulfonyl)-4,5,6,7-tetrahydro-isoxazolo[4,5-c]pyridine-3-carboxylic acid [2-(7-methyl-1H-indol-3-yl)-ethyl] amide]
76%	COc1ccc(OCCNC(=O)c2noc3c2CN(S(=O)(=O)c2ccccc2)CC3)cc1 [Example 106, 5-benzenesulfonyl-4,5,6,7-tetrahydro-isoxazolo[4,5-c]pyridine-3-carboxylic acid [2-(4-methoxy-phenoxy)-ethyl] amide]
61%	CN(C)S(=O)(=O)N1CCc2onc(C(=O)NCc3ccc(C(F)(F)F)c(F)c3)c2C1 [Example 107, 5-dimethylsulfamoyl-4,5,6,7-tetrahydro-isoxazolo[4,5-c]pyridine-3-carboxylic acid 3-fluoro-4-trifluoromethyl-benzyl amide]
88%	C#CCNC(=O)c1noc2c1CN(C(=O)c1cccc(C)c1)CC2 [Example 108, 5-(3-methyl-benzoyl)-4,5,6,7-tetrahydro-isoxazolo[4,5-c]pyridine-3-carboxylic acid prop-2-ynyl amide]
71%	O=C(NCc1ccc(F)cc1F)c1noc2c1CN(S(=O)(=O)c1cc(Cl)ccc1Cl)CC2 [Example 112, 5-(2,5-dichloro-benzenesulfonyl)-4,5,6,7-tetrahydro-isoxazolo[4,5-c]pyridine-3-carboxylic acid 2,4-difluoro-benzyl amide]
65%	Cc1ccc(C(=O)N2CCc3onc(C(=O)NCCN4CCCC4)c3C2)cc1F [Example 115, 5-(3-fluoro-4-methyl-benzoyl)-4,5,6,7-tetrahydro-isoxazolo[4,5-c]pyridine-3-carboxylic acid (2-pyrrolidin-1-yl-ethyl) amide]
77%	CC(C)CNC(=O)c1noc2c1CN(C(=O)c1cc(C(F)(F)F)ccc1Cl)CC2 [Example 116, 5-(2-chloro-5-trifluoromethyl-benzoyl)-4,5,6,7-tetrahydro-isoxazolo[4,5-c]pyridine-3-carboxylic acid isobutyl amide]
73%	CN(C)CCNC(=O)c1noc2c1CN(C(=O)c1cccc(OC(F)(F)F)c1)CC2 [Example 119, 5-(3-trifluoromethoxy-benzoyl)-4,5,6,7-tetrahydro-isoxazolo[4,5-c]pyridine-3-carboxylic acid (2-dimethylamino-ethyl) amide]
65%	O=C(NCc1ccc(F)cc1)c1noc2c1CN(C(=O)c1ccc3ncccc3c1)CC2 [Example 124, 5-(quinoline-6-carbonyl)-4,5,6,7-tetrahydro-isoxazolo[4,5-c]pyridine-3-carboxylic acid 4-fluorobenzyl amide]

Compound	inhibition at 10 µM
C=CCOc1ccc(CN(Cc2ccco2)C(=O)c2noc3c2CN(S(=O)(=O)c2cccc(C(F)(F)F)c2)CC3)cc1 [Example 87, 5-(3-trifluoromethyl-benzenesulfonyl)-4,5,6,7-tetrahydro-isoxazolo[4,5-c]pyridine-3-carboxylic acid (4-allyloxy-benzyl)-furan-2-ylmethyl amide]	66%
Cc1cc(C(=O)N2CCc3onc(C(=O)NCCN4CCOCC4)c3C2)ccc1Br [Example 90, 5-(4-bromo-3-methyl-benzoyl)-4,5,6,7-tetrahydro-isoxazolo[4,5-c]pyridine-3-carboxylic acid (2-morpholin-4-yl-ethyl) amide]	65%
Cc1ccc(S(=O)(=O)N2CCc3onc(C(=O)NC4CCN(Cc5c(Cl)cccc5Cl)C4)c3C2)cc1 (stereo not drawn) [Example 91, 5-(toluene-4-sulfonyl)-4,5,6,7-tetrahydro-isoxazolo[4,5-c]pyridine-3-carboxylic acid [1-(2,6-dichloro-benzyl)-pyrrolidin-3-yl] amide]	67%
Cc1cc(C(=O)N2CCc3onc(C(=O)NCCN4CCCC4)c3C2)ccc1Br [Example 102, 5-(4-bromo-3-methyl-benzoyl)-4,5,6,7-tetrahydro-isoxazolo[4,5-c]pyridine-3-carboxylic acid (2-pyrrolidin-1-yl-ethyl) amide]	70%
O=C(NCc1ccc(C(F)(F)F)c(F)c1)c1noc2c1CN(S(=O)(=O)c1ccccc1)CC2 [Example 113, 5-benzenesulfonyl-4,5,6,7-tetrahydro-isoxazolo[4,5-c]pyridine-3-carboxylic acid 3-fluoro-4-trifluoromethyl-benzyl amide]	83%
CCCCOc1ccc(S(=O)(=O)N2CCc3onc(C(=O)NCC(C)C)c3C2)cc1 [Example 114, 5-(4-butoxy-benzenesulfonyl)-4,5,6,7-tetrahydro-isoxazolo[4,5-c]pyridine-3-carboxylic acid isobutyl amide]	85%
CC(C)CNC(=O)c1noc2c1CN(C(=O)C(NC(=O)OCc1ccccc1)c1ccccc1)CC2 (stereo not drawn) [Example 126, [2-(3-isobutylcarbamoyl-6,7-dihydro-4H-isoxazolo[4,5-c]pyridin-5-yl)-2-oxo-1-phenyl-ethyl]-carbamic acid benzyl ester]	80%
O=C(NC(=S)N1CCc2onc(C(=O)NCCN3CCCC3)c2C1)c1ccccc1 [Example 128, 5-benzoylaminocarbothioyl-4,5,6,7-tetrahydro-isoxazolo[4,5-c]pyridine-3-carboxylic acid (2-pyrrolidin-1-yl-ethyl) amide]	80%

Same assay, conditions: 10 µM

Compound	5-HT uptake (rat), 10 μM, % inhibition
O=C(NCCN1CCCC1)c1noc2c1CN(C(=O)COc1cccc(Cl)c1)CC2 [Example 94, 5-[2-(3-chlorophenoxy)-acetyl]-4,5,6,7-tetrahydro-isoxazolo[4,5-c]pyridine-3-carboxylic acid (2-pyrrolidin-1-yl-ethyl) amide]	94%
